Literature values in patent US20110088590A1, “METHOD FOR TREATING WOOD” (priority 2005, published 2011).

Tested on: honey bees and other beneficial insects, fish, aquatic insects, crayfish, and shrimp
Settings: for many species

## CC1(C)C(C=C(Cl)Cl)C1C(=O)OCc1cccc(Oc2ccccc2)c1 (stereo not shown) [Permethrin]
  lethal concentration: less than one
